Where two headings read alike, the source gives them in different places.
Test system: HCV Replicon IB
Test: HCV replicon assay in Huh-7 cells, genotype 1b (Rluc luciferase readout)
Type: cell-based, hepatitis C virus
Settings: for EC50: HCV1B replicon, read-out: EC50_HCV1B_; for inhibition at 10 µM: read-out: Inhibition @ 10 uM in 1b-Rluc
[1] = Hepatitis C virus, Huh-7, 72 h, Huh-7 cells, 3 days
[2] = Hepatitis C virus, 72 h, 10 uM, 1b-Rluc replicon, Huh-7 cells, 3 days

Row | Structure (SMILES) | EC50 [1] | inhibition at 10 µM [2] | also measured
1 | Cc1cc(-c2nnc(NCC3(CO)CC3)s2)nc2c(C(F)(F)F)cc(C3CC3)cc12 [Compound 306] | 1410 nM | – | –
2 | Cc1cc(-c2nnc(NCC(=O)N(C)C)o2)nc2c(C(C)(C)C)cc(C3CC3)cc12 [Compound 281] | – | 99.8% | –
3 | Nc1cc(C(=O)NCC2CS(=O)(=O)CCN2)nc2c(C(F)(F)F)cc(OC(F)F)cc12 (centres unmarked) [Compound 198] | – | 98.4% | –
4 | CCCCNc1nnc(-c2cc(C)c3cc(C4CC4)cc(C(F)(F)F)c3n2)s1 [Compound 288] | – | 100% | –
5 | CC(C)(C)c1cc(C2CC2)cc2c(N)cc(C(=O)NC[C@@H]3CSCN3)nc12 [Compound 336] | 4.45 nM | – | –
6 | CC(C)(C)c1cc(C2CC2)cc2c(N)cc(-c3nnc(NCC(F)(F)CO)o3)nc12 [Compound 372] | 1.95 nM | – | –
7 | Cc1cc(C(=O)NCc2ccccn2)nc2c(C(F)(F)F)cc(C(C)C)cc12 [Compound 157] | – | 98.8% | –
8 | Cc1cc(-c2nnc(NCC3(C)COC3)o2)nc2c(C(C)(C)C)cc(OCC(F)(F)F)cc12 [Compound 486] | 1850 nM | – | –
9 | CC(=O)N(C)c1cc(C(F)(F)F)c2nc(C(=O)NCc3ccccn3)cc(C)c2c1 [Compound 180] | – | 65.5% | –
10 | Cc1cc(-c2nnc(N[C@H]3C[C@@](C)(O)C3)o2)nc2c(C(C)(C)C)cc(OC(F)F)cc12 [Compound 525] | 0.74 nM | – | –
11 | Cc1cc(-c2nnc(N[C@H]3CC[C@](O)(CF)C3)o2)nc2c(C(C)(C)C)cc(OCC(F)(F)F)cc12 [Compound 491] | 0.57 nM | – | –
12 | CS(=O)(=O)Nc1nc(C(=O)NCc2cccs2)nc2c(C(F)(F)F)cc(-c3ccccc3)cc12 [Compound 222] | – | 95.1% | –
13 | CCOCCNc1nnc(-c2cc(C)c3cc(OC)cc(C(F)(F)F)c3n2)o1 [Compound 276] | – | 97.6% | –
14 | CO[C@@H]1CN[C@H](CNC(=O)c2nc(N)c3cc(-c4ccccc4)cc(C(F)(F)F)c3n2)C1 [Compound 436] | 589 nM | – | –
15 | CCC(CNC(=O)c1cc(Cl)c2cc(OC(F)F)cc(C(F)(F)F)c2n1)=NOC [Compound 206] | – | 64% | –
16 | CCCCNc1nnc(-c2cc(N)c3cc(C4CC4)cc(C(C)(C)C)c3n2)s1 [Compound 376] | 0.86 nM | – | –
17 | Cc1cc(C(=O)NCc2ccccn2)nc2c(OC(F)(F)F)cc(C3CC3)cc12 [Compound 234] | – | 100% | –
18 | Cc1cc(C(=O)NC[C@@H]2CS(=O)(=O)CCN2)nc2c(C(C)(C)C)cc(C3CC3)cc12 [Compound 426] | 6.27 nM | – | –
19 | Cc1cc(-c2nnc(NCc3ncc[nH]3)o2)nc2c(C(C)(C)C)cc(C3CC3)cc12 [Compound 394] | 1130 nM | – | –
20 | CCCCNc1nnc(-c2cc(N)c3cc(C4CC4)cc(C(C)(C)C)c3n2)o1 [Compound 344] | 11 nM | – | –
21 | Cc1cc(-c2nnc(NCCCOP(=O)(O)O)s2)nc2c(C(F)(F)F)cc(C3CC3)cc12 [Compound 287] | – | 99.9% | –
22 | Cc1cc(C(=O)NC[C@@H]2CS(=O)(=O)CCN2)nc2c(OC(F)(F)F)cc(C3CC3)cc12 [Compound 441] | 12.4 nM | – | –
23 | Cc1cc(-c2nnc(NCCC(C)O)s2)nc2c(C(F)(F)F)cc(C3CC3)cc12 (centres unmarked) [Compound 302] | – | 99.9% | –
24 | Cc1cc(C(=O)NCc2ccccn2)nc2c(C(F)(F)F)cc(C3CCCC3)cc12 [Compound 150] | – | 99% | –
25 | CCCCNc1nnc(-c2cc(Cl)c3cc(C4CC4)cc(C(C)(C)C)c3n2)s1 [Compound 378] | 48.9 nM | – | –

Row | Structure (SMILES) | EC50 [1] | inhibition at 10 µM [2] | also measured
26 | Cc1cc(-c2nnc(NCCCS(N)(=O)=O)o2)nc2c(C(F)(F)F)cc(C3CC3)cc12 [Compound 267] | – | 97.7% | –
27 | CC(=O)Nc1cc(C(F)(F)F)c2nc(C(=O)NCc3ccccn3)cc(C)c2c1 [Compound 177] | – | 94.7% | –
28 | Nc1cc(-c2nnc(NCCCO)s2)nc2c(C(F)(F)F)cc(C3CC3)cc12 [Compound 375] | 9.56 nM | – | –
29 | Cc1cc(-c2nnc(N[C@H]3C[C@@H](OP(=O)(O)O)C3)o2)nc2c(C(C)(C)C)cc(OCC(F)(F)F)cc12 [Compound 480] | 1.24 nM | – | –
30 | Cc1cc(C(=O)NCC(C)(C)O)nc2c(C(F)(F)F)cc(C3CC3)cc12 [Compound 93] | – | 99% | –
31 | Cc1cc(C(=O)NCC2OCCCO2)nc2c(C(F)(F)F)cc(C3CC3)cc12 [Compound 82] | – | 100% | –
32 | CNC(=O)CNc1nnc(-c2cc(C)c3cc(C4CC4)cc(C(F)(F)F)c3n2)o1 [Compound 264] | – | – | inhibition at 10 µM (Hepatitis C virus, Huh-7, 72 h): 99.8%
33 | Nc1cc(C(=O)NCc2ccccn2)nc2c(OC(F)(F)F)cc(C3CC3)cc12 [Compound 235] | – | 100% | –
34 | Nc1nnc(-c2cc(N)c3cc(C4CC4)cc(C(F)(F)F)c3n2)s1 [Compound 373] | 65 nM | – | –
35 | Cc1cc(-c2nnc(N[C@H]3C[C@H](O)C3)o2)nc2c(C(C)(C)C)cc(C3CC3)cc12 [Compound 422] | 5.55 nM | – | –
36 | Cc1cc(C(=O)N/C=C/Cc2ccccc2)nc2c(C(F)(F)F)cc(-c3ccccc3)cc12 [Compound 171] | – | 92.5% | –
37 | Cc1cc(-c2nnc(NC3CCNC3)o2)nc2c(C(C)(C)C)cc(C3CC3)cc12 (centres unmarked) [Compound 399] | 888 nM | – | –
38 | CC[C@@]1(O)CN[C@H](CNC(=O)c2cc(C)c3cc(C4CC4)cc(C(C)(C)C)c3n2)C1 [Compound 430] | 1450 nM | – | –
39 | Cc1cc(C(=O)NC[C@@H]2CS(=O)(=O)CCN2)nc2c(C(C)(C)C)cc(OCC(F)(F)F)cc12 [Compound 509] | 3.61 nM | – | –
40 | Cc1cc(-c2nnc(NCC3(C)OCCO3)o2)nc2c(C(F)(F)F)cc(C3CC3)cc12 [Compound 247] | – | 100% | –
41 | CC(C)(O)CCNc1nnc(-c2cc(N)c3cc(C4CC4)cc(C(C)(C)C)c3n2)s1 [Compound 383] | 4.85 nM | – | –
42 | Cc1cc(-c2nnc(NC3CC(O)C3)o2)nc2c(C(C)(C)C)cc(OCC(F)(F)F)cc12 (centres unmarked) [Compound 461] | 1.38 nM | – | –
43 | Cc1cc(C(=O)NCc2ccccn2)nc2c(C(F)(F)F)cc(OCC(F)(F)F)cc12 [Compound 189] | – | 99.8% | –
44 | CCCCNC(=O)[C@@H]1CSC(c2cc(C)c3cc(OC(F)F)cc(C(F)(F)F)c3n2)=N1 [Compound 340] | 3900 nM | – | –
45 | Cc1cc(-c2nnc(N)o2)nc2c(C(F)(F)F)cc(C3CC3)cc12 [Compound 243] | – | 88.4% | –
46 | Cc1cc(-c2nnc(NCC[C@@H](C)O)s2)nc2c(C(C)(C)C)cc(C3CC3)cc12 [Compound 386] | 1.14 nM | – | –
47 | Nc1cc(C(=O)NCc2cccc(F)n2)nc2c(C(F)(F)F)cc(OC(F)F)cc12 [Compound 195] | – | 99.7% | –
48 | Cc1cc(-c2nnc(Nc3cccnc3)s2)nc2c(C(C)(C)C)cc(OCC(F)(F)F)cc12 [Compound 519] | 21.1 nM | – | –
49 | Cc1cc(C(=O)NCC2CCCCN2)nc2c(C(F)(F)F)cc(C3CCCC3)cc12 (centres unmarked) [Compound 151] | – | 99.6% | –
50 | Cc1cc(-c2nnc(NCc3ncc[nH]3)o2)nc2c(C(F)(F)F)cc(C3CC3)cc12 [Compound 257] | – | 99.7% | –

Row | Structure (SMILES) | EC50 [1] | inhibition at 10 µM [2] | also measured
51 | CC(C)(O)CCNc1nnc(-c2cc(N)c3cc(C4CC4)cc(C(F)(F)F)c3n2)s1 [Compound 374] | 62 nM | – | –
52 | Cc1cc(-c2nnc(NCCCCO)o2)nc2c(C(F)(F)F)cc(C3CC3)cc12 [Compound 258] | – | 100% | –
53 | COCCCNC(=O)CNC(=O)c1cc(C)c2cc(C3CC3)cc(C(F)(F)F)c2n1 [Compound 118] | – | 84.5% | –
54 | Cc1cc(C(=O)NCc2ncccn2)nc2c(C(F)(F)F)cc(C3CC3)cc12 [Compound 90] | – | 100% | –
55 | Cc1cc(-c2nnc(NCC3OCCO3)o2)nc2c(C(C)(C)C)cc(C3CC3)cc12 [Compound 283] | – | 100% | –
56 | O=C(NCc1ccccn1)c1cnc2cc(-c3ccccc3)cc(C(F)(F)F)c2n1 [Compound 173] | – | 86.3% | –
57 | Cc1cc(-c2nnc(N[C@H]3CC[C@@](C)(O)CC3)o2)nc2c(C(C)(C)C)cc(OCC(F)(F)F)cc12 [Compound 497] | – | – | EC50 (Huh-7 cells, 3 days): 73.7 nM
58 | Cc1cc(-c2nnc(NCC(=O)N(C)C)o2)nc2c(C(C)(C)C)cc(OCC(F)(F)F)cc12 [Compound 453] | 14.9 nM | – | –
59 | CNC(=O)CNC(=O)c1cc(C)c2cc(C3CC3)cc(C(F)(F)F)c2n1 [Compound 116] | – | 97.2% | –
60 | CC(C)(C)c1cc(C2CC2)cc2c(Cl)cc(C(=O)NCC3COCCN3)nc12 (centres unmarked) [Compound 228] | – | 94.7% | –
61 | CCCCN(C)c1cc(C(F)(F)F)c2nc(C(=O)NCc3ccccn3)cc(C)c2c1 [Compound 176] | – | 80.4% | –
62 | Cc1cc(C(=O)NCc2ccccn2)nc2c(C(F)(F)F)cc(C#CC(C)(C)C)cc12 [Compound 145] | – | 72% | –
63 | CC(=O)N1CCNC(CNC(=O)c2cc(N)c3cc(OC(F)F)cc(C(F)(F)F)c3n2)C1 (centres unmarked) [Compound 317] | 9790 nM | – | –
64 | COCCCNc1nnc(-c2cc(C)c3cc(C4CC4)cc(C(F)(F)F)c3n2)o1 [Compound 245] | – | 100% | –
65 | Cc1cccc(CNC(=O)c2cc(C)c3cc(C4CC4)cc(C(F)(F)F)c3n2)n1 [Compound 83] | – | 99.4% | –
66 | Cc1cc(C(=O)NC(CO)c2ccccc2)nc2c(C(F)(F)F)cc(-c3ccccc3)cc12 (centres unmarked) [Compound 167] | – | 87.5% | –
67 | O=C(NCc1ccccn1)c1cc(Cl)c2cc(OC(F)(F)F)cc(C(=O)O)c2n1 [Compound 241] | – | 7.94% | –
68 | Cc1cc(-c2nnc(NCCCN3CCOCC3)o2)nc2c(C(F)(F)F)cc(C3CC3)cc12 [Compound 251] | – | 80.9% | –
69 | Cc1cc(-c2nnc(NCC3OCCO3)o2)nc2c(OC(F)(F)F)cc(C3CC3)cc12 [Compound 444] | 5.88 nM | – | –
70 | Cc1cc(-c2nnc(NCCS(C)(=O)=O)o2)nc2c(C(F)(F)F)cc(C3CC3)cc12 [Compound 265] | – | 98% | –
71 | Cc1cc(-c2nnc(N[C@H]3CC[C@@H](O)C3)o2)nc2c(C(C)(C)C)cc(C3CC3)cc12 [Compound 414] | 1.74 nM | – | –
72 | CC(C)(C)c1cc(C2CC2)cc2c(N)cc(-c3nnc(NCCCO)o3)nc12 [Compound 365] | 4.87 nM | – | –
73 | Cc1cc(-c2nnc(NCCCO)o2)nc2c(C(C)(C)C)cc(C3CC3)cc12 [Compound 282] | – | 99.9% | –
74 | Cc1cc(-c2nnc(N[C@@H]3CCOC3)o2)nc2c(C(C)(C)C)cc(C3CC3)cc12 [Compound 405] | 5.25 nM | – | –
